# Legend:
# [1] = molecular target: T1, Membrane-associated tyrosine- and threonine-specific cdc2-inhibitory kinase (Homo sapiens) (UniProt Q99640); assay: Inhibition of PKMYT1 (unknown origin) assessed as residual activity at 100 nM by KINOMEscan analysis relative to control
# T1 sequence (whole entry): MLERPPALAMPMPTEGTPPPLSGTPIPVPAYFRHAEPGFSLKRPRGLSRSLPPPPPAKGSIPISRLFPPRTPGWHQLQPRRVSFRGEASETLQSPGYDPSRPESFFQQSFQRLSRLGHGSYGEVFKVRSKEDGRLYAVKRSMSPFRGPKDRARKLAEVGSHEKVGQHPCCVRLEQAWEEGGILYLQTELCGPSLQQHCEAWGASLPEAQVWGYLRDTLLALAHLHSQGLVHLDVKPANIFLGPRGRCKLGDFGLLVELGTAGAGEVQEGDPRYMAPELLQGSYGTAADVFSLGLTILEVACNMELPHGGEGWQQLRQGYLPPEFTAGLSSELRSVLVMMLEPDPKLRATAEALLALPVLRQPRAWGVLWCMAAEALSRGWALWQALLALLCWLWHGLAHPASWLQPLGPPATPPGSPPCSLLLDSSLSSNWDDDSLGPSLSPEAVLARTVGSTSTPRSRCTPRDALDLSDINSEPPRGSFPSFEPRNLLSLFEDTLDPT
# [2] = molecular target: T2, Cyclin-dependent kinase-like 5 (Homo sapiens) (UniProt O76039); assay: Inhibition of CDKL5 (unknown origin) assessed as residual activity at 100 nM by KINOMEscan analysis relative to control
# T2 sequence (whole entry): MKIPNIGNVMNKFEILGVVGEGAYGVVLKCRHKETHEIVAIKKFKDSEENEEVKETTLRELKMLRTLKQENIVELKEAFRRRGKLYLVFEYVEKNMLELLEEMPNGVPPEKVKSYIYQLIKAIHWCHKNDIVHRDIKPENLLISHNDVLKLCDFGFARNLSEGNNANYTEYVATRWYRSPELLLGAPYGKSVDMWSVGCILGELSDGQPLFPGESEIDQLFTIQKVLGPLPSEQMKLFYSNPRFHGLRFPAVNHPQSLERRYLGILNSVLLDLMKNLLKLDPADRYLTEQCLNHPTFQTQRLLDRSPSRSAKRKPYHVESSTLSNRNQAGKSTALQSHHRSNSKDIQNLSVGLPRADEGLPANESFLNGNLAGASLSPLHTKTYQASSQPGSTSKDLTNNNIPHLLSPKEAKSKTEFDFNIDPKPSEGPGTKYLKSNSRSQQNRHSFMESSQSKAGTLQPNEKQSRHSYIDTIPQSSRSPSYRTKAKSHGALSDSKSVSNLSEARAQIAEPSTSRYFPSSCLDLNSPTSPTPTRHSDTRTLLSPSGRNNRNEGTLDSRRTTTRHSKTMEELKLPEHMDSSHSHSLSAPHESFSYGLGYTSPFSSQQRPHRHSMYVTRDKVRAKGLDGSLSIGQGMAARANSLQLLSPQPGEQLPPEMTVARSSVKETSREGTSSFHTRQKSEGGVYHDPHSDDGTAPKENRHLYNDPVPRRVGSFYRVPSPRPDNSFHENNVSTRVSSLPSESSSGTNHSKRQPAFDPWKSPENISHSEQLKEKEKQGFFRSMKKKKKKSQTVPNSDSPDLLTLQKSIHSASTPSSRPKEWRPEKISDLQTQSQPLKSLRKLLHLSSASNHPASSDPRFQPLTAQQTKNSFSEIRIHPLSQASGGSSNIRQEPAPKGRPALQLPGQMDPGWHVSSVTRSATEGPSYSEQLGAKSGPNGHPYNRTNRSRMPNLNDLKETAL
# [3] = molecular target: T3, Tyrosine-protein kinase Mer (Homo sapiens) (UniProt Q12866); assay: Inhibition of MERTK (unknown origin) assessed as residual activity at 100 nM by KINOMEscan analysis relative to control
# T3 sequence (whole entry): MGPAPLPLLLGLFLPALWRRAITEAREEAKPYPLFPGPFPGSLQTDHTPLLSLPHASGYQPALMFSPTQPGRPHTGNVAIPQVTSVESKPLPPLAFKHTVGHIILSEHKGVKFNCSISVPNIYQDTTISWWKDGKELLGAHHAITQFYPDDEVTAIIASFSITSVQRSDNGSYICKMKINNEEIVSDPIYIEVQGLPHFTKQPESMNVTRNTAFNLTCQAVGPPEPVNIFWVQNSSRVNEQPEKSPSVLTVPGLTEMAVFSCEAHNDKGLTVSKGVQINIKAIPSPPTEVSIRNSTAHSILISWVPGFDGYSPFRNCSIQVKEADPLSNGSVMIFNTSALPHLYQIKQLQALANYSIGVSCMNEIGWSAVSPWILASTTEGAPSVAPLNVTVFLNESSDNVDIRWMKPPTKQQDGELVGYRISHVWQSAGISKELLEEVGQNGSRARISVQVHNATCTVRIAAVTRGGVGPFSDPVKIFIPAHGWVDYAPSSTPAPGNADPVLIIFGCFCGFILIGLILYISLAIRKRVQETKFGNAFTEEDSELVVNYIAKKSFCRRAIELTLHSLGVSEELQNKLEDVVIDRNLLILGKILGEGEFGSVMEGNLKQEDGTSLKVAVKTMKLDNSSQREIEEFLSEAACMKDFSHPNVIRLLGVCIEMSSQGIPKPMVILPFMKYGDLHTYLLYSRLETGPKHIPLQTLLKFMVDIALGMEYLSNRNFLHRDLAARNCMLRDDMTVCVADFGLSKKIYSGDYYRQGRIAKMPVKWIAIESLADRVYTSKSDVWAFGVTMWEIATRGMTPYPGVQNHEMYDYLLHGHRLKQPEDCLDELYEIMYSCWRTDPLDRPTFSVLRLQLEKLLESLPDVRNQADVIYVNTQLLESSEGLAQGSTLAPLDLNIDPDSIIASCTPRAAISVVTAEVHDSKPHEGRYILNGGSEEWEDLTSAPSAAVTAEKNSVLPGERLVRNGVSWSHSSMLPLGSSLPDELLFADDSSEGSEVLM
# [4] = molecular target: Mitogen-activated protein kinase kinase kinase 10 (Homo sapiens) (UniProt Q02779); assay: Inhibition of MLK2 (unknown origin) assessed as residual activity at 100 nM by KINOMEscan analysis relative to control
# Mitogen-activated protein kinase kinase kinase 10 (Homo sapiens), sequence (Q02779 whole entry, looked up): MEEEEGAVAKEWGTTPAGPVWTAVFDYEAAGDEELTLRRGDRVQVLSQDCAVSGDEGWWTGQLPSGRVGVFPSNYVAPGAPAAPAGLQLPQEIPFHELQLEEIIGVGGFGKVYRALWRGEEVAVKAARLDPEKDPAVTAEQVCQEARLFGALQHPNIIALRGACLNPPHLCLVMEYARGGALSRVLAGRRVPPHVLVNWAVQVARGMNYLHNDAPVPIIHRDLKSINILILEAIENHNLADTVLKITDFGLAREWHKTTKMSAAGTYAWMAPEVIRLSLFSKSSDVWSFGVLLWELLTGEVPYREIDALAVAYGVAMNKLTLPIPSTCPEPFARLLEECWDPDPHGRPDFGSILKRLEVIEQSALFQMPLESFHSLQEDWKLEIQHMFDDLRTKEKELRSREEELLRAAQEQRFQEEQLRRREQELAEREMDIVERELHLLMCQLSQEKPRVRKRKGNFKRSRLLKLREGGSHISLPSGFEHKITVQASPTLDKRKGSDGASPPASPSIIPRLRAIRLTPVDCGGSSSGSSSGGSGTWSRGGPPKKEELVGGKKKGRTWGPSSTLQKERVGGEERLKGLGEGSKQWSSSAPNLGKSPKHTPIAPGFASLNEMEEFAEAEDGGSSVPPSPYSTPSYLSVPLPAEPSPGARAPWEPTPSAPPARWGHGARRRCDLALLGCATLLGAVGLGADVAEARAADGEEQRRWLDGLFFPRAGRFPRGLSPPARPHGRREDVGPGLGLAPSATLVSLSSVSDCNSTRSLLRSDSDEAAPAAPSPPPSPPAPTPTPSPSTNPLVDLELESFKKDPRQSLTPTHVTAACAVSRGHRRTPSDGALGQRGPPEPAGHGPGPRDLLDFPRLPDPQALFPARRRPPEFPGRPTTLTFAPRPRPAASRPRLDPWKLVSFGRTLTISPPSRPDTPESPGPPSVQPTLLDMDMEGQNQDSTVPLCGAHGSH
# [5] = molecular target: Serine/threonine-protein kinase PLK1 (Homo sapiens) (UniProt P53350); assay: Inhibition of PLK1 (unknown origin) assessed as residual activity at 100 nM by KINOMEscan analysis relative to control
# Serine/threonine-protein kinase PLK1 (Homo sapiens), sequence (P53350 whole entry): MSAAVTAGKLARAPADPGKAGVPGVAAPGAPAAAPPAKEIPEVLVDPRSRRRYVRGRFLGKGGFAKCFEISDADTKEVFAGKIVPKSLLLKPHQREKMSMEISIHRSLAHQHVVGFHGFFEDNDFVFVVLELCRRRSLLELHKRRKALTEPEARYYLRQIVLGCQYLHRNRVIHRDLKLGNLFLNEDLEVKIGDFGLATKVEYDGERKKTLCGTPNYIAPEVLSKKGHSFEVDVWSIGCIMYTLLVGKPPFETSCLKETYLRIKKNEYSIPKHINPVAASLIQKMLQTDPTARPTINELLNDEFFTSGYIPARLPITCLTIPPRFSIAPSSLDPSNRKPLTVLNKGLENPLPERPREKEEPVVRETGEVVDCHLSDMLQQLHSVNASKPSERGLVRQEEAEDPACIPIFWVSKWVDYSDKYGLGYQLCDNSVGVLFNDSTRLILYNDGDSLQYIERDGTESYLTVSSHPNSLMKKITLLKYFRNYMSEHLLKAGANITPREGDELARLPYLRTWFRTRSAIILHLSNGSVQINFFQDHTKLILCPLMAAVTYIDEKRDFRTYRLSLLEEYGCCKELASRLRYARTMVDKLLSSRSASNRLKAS
# [6] = molecular target: Cyclin-dependent kinase 13 (Homo sapiens) (UniProt Q14004); assay: Inhibition of CDC2L5 (unknown origin) assessed as residual activity at 100 nM by KINOMEscan analysis relative to control
# Cyclin-dependent kinase 13 (Homo sapiens), sequence (Q14004 whole entry, looked up): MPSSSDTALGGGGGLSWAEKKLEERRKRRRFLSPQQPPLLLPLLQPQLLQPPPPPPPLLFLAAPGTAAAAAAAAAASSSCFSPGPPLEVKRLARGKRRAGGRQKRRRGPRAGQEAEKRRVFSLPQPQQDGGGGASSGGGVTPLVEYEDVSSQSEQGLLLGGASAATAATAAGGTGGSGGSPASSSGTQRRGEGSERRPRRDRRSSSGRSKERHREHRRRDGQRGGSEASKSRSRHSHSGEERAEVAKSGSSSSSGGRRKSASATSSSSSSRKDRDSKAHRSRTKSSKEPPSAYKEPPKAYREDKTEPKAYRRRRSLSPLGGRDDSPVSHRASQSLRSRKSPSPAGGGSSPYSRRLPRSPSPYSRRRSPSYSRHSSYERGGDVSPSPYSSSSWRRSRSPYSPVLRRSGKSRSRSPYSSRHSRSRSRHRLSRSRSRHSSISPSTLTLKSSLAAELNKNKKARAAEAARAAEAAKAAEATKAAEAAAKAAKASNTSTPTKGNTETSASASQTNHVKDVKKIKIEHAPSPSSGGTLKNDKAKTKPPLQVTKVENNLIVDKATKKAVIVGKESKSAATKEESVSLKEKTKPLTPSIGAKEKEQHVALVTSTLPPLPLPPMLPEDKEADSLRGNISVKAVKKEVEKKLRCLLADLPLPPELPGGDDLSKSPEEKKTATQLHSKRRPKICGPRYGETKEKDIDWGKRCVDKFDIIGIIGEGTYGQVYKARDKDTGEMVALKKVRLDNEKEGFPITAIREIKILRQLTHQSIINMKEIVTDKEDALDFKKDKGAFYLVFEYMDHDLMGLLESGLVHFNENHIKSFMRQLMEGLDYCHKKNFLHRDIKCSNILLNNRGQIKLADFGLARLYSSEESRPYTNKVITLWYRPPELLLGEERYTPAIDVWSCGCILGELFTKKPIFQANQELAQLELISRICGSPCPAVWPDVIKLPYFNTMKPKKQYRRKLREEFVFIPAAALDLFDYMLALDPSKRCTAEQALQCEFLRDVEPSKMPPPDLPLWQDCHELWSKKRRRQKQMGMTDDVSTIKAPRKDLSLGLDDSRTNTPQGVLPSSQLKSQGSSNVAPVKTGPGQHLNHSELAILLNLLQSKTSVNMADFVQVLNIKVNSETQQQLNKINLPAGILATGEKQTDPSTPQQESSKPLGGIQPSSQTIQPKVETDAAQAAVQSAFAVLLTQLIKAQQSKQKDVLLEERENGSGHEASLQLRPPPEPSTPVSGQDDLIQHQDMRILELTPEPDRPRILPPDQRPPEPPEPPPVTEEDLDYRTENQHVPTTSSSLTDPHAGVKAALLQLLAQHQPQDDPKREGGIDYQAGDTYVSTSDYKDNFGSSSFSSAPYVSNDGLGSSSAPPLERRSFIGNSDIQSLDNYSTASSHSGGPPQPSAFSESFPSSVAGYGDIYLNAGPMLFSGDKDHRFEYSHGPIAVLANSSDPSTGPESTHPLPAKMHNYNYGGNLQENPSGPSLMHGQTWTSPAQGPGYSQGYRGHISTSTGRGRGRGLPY
# [7] = molecular target: Cyclin-dependent kinase 8 (Homo sapiens) (UniProt P49336); assay: Inhibition of CDK8 (unknown origin) assessed as residual activity at 100 nM by KINOMEscan analysis relative to control
# Cyclin-dependent kinase 8 (Homo sapiens), sequence (P49336 whole entry, the tested form may be a part): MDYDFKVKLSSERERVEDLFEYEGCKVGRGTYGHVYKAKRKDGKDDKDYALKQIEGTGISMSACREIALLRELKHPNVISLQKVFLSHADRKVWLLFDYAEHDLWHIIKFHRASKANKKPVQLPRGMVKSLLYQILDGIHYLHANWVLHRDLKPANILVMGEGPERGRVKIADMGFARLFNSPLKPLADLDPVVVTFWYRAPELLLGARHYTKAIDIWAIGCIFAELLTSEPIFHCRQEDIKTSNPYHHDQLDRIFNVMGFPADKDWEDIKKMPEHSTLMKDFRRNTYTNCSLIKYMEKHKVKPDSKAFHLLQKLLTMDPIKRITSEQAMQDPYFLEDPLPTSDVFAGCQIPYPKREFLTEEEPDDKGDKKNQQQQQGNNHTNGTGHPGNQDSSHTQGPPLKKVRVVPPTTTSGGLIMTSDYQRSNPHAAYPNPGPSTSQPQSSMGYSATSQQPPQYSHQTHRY
# [8] = molecular target: Ribosomal protein S6 kinase alpha-3 (Homo sapiens) (UniProt P51812); assay: Inhibition of C-terminal RSK2 kinetic domain 2 (unknown origin) assessed as residual activity at 100 nM by KINOMEscan analysis relative to control
# Ribosomal protein S6 kinase alpha-3 (Homo sapiens), sequence (P51812 whole entry, the tested form may be a part): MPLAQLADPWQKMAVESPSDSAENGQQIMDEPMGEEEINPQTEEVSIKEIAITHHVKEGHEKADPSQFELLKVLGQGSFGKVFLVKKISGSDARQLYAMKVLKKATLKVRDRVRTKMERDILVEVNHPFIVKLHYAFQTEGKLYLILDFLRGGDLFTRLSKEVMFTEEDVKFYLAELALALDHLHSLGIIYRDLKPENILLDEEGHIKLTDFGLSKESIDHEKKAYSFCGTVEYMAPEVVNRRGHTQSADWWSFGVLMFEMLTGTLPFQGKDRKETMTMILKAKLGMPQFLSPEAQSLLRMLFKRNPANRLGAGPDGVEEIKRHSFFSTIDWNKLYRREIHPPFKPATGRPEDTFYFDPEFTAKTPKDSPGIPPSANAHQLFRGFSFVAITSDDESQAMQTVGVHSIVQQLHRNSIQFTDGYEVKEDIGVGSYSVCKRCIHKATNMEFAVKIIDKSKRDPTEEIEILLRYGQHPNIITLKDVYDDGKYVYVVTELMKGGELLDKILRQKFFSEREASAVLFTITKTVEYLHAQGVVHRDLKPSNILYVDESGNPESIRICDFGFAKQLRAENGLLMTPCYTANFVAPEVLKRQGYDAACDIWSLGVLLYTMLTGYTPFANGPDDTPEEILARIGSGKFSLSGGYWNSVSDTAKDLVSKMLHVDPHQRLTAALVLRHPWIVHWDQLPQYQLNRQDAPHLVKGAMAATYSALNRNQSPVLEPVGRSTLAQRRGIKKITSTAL
structure (smiles),measurement,setting,value
COc1cc2ncnc(N[C@H](C)c3cccc4ccccc34)c2cc1OC,Activity,[1],100%
same,Activity,[2],96%
same,Activity,[3],97%
same,Activity,[4],100%
same,Activity,[5],85%
same,Activity,[6],92%
same,Activity,[7],91%
same,Activity,[8],92%

# Reference: ChEMBL document CHEMBL5678818, “Discovery of potent SOS1 inhibitors that block RAS activation via disruption of the RAS-SOS1 interaction” (Proc Natl Acad Sci U S A, 2019)
